Patent US10189795B2, “Aryl amine substituted quinoxaline used as anticancer drugs” (priority 2014, dated 2019)

Columns and labels:
Format in all cases: cell-based
NCI-1703 = assay: cell viability of NCI-1703 cells, 1 and 10 uM of each erlotinib derivative, and IC50; settings: Homo sapiens; for IC50: cell viability
Description: [Worded in the source for another cell line; this cell line is reported under the same test.] (§1) Sorafenib (Nexavar), erlotinib (Tarceva) and Paclitaxel were kindly provided by Bayer Pharmaceuticals (Pittsburgh, Pa., USA) and Roche Pharmaceuticals (Basel, Switzerland) respectively. Okadaic acid (OA) was purchased from Cayman Chemical (Ann Arbor, Mich., USA) and z-VAD-fmk was obtained from Sigma (St. Louis, Mo., USA). For in vitro studies, drugs at various concentrations were dissolved in dimethyl sulfoxide (DMSO), and added to cells in Dulbecco's modified Eagle's medium (DMEM) or Roswell Park Memorial Institute (RPMI) containing 5% fetal bovine serum (FBS).
(§2) The Sk-Hep1, PLC/PRF/5 (PLC) and Hep3B cell lines were obtained from American Type Culture Collection (ATCC; Manassas, Va., USA). The Huh-7 HCC cell line was obtained from the Health Science Research Resources Bank (HSRRB; Osaka, Japan; JCRB0403). Cells were maintained in DMEM supplemented with 10% FBS in a 37° C. humidified incubator in an atmosphere of 5% CO^2 in air.

NCI-H226 = assay: cell viability of NCI-H226 cells, 1 and 10 uM; settings: Homo sapiens
Description: [Worded in the source for another cell line; this cell line is reported under the same test.] as §1, §2

H2170 = assay: cell viability of H2170 cells, 1 and 10 uM; settings: Homo sapiens, NCI-H2170
Description: [Worded in the source for another cell line; this cell line is reported under the same test.] as §1, §2

H520 = assay: cell viability of H520 cells, 1 and 10 uM; settings: Homo sapiens, NCI-H520
Description: [Worded in the source for another cell line; this cell line is reported under the same test.] as §1, §2

SW900 = assay: cell viability of SW900 cells, 1 and 10 uM; settings: Homo sapiens
Description: [Worded in the source for another cell line; this cell line is reported under the same test.] as §1, §2

A549 = assay: cell viability of A549 cells, 1 and 10 uM; settings: Homo sapiens
Description: [Worded in the source for another cell line; this cell line is reported under the same test.] as §1, §2

H358 = assay: cell viability of H358 cells, 1 and 10 uM; settings: Homo sapiens, NCI-H358
Description: [Worded in the source for another cell line; this cell line is reported under the same test.] as §1, §2

Row | Compound | viability at 1 µM (NCI-1703) [%] | viability at 10 µM (NCI-1703) [%] | viability at 1 µM (NCI-H226) [%] | viability at 10 µM (NCI-H226) [%] | viability at 1 µM (H2170) [%] | viability at 10 µM (H2170) [%] | viability at 1 µM (H520) [%] | viability at 10 µM (H520) [%] | viability at 1 µM (SW900) [%] | viability at 10 µM (SW900) [%] | viability at 1 µM (A549) [%] | viability at 10 µM (A549) [%] | viability at 1 µM (H358) [%] | viability at 10 µM (H358) [%] | IC50 (NCI-1703) [µM]
1 | c1ccc(CNc2nc3ccccc3nc2NCc2ccccc2)cc1 [TD54, N^2,N^3-dibenzylquinoxaline-2,3-diamine] | 127 ± 2 | 96.7 ± 4.2 | 120 ± 4.9 | 110.9 ± 0.8 | 100 ± 4.93 | 79.1 ± 7.69 | 118 ± 3 | 102 ± 1.46 | 125 ± 27 | 126 ± 10.6 | – | – | – | – | –
2 | O=[N+]([O-])c1ccc2nc(Nc3cccc(O)c3)c(Nc3cccc(O)c3)nc2c1 [TD613, 3-(2-(3-hydroxyphenylamino)-6-nitroquinoxalin-3-ylamino)phenol] | 86 ± 0.5 | 24.8 ± 2 | 75.5 ± 7.9 | 7 ± 0.3 | 108 ± 1.99 | 11.6 ± 1.38 | 99.45 ± 0.5 | 18.8 ± 0.22 | 116 ± 7.2 | 80.9 ± 3.8 | 105 ± 3.4 | 9.5 ± 0.7 | 69.9 ± 60.7 | 12 ± 0.5 | –
3 | C#Cc1cccc(Nc2nc3cc([N+](=O)[O-])ccc3nc2Nc2ccc(O)cc2C)c1 [TD625, 4-(2-(3-ethynylphenylamino)-7-nitroquinoxalin-3-ylamino)-3-methylphenol] | 224 ± 7 | – | 115 ± 7.2 | – | – | – | – | – | – | – | 73.7 ± 3 | – | 92.6 ± 7.4 | – | –
4 | FC(F)(F)c1cccc(Nc2nc3ccccc3nc2Nc2cccc(C(F)(F)F)c2)c1 [TD60, N^2,N^3-bis(3-(trifluoromethyl)phenyl)quinoxaline-2,3-diamine] | 51.9 ± 2.9 | 26.1 ± 0.8 | 92.5 ± 1.7 | 15.9 ± 1 | 72.3 ± 0.89 | 0.41 ± 0.65 | 21.8 ± 1.52 | 0.36 ± 0.18 | 19.3 ± 6.18 | – | 91.3 ± 4 | 21.8 ± 1.4 | 55.3 ± 1.9 | 18.1 ± 1.3 | –
5 | CCc1cccc(Nc2nc3ccccc3nc2Nc2cccc(CC)c2)c1 [TD59, N^2,N^3-bis(3-ethylphenyl)quinoxaline-2,3-diamine] | 114 ± 7.4 | 26.4 ± 0.7 | 122 ± 2.6 | 32.5 ± 2.5 | 88.4 ± 2.01 | 8.96 ± 1.43 | 88.3 ± 1.5 | 0.41 ± 0.32 | 110 ± 1.8 | – | 164.6 ± 0.1 | 24.1 ± 3.9 | 117 ± 12.1 | 19 ± 1.5 | –
6 | O=[N+]([O-])c1ccc2nc(Nc3ccc(F)cc3)c(Nc3ccc(F)cc3)nc2c1 [TD620, N^2,N^3-bis(4-fluorophenyl)-6-nitroquinoxaline-2,3-diamine] | 26.2 ± 0.6 | 21 ± 1.7 | 132 ± 5 | 17.9 ± 0.6 | – | – | – | – | – | – | 48.7 ± 8.4 | 7.8 ± 0.4 | 24.2 ± 1.4 | 12.6 ± 0.7 | 0.3
7 | COC(=O)c1ccc2nc(Nc3ccc(OC(F)(F)F)cc3)c(Nc3ccc(OC(F)(F)F)cc3)nc2c1 [TD94, methyl 2,3-bis((4-(trifluoromethoxy)phenyl)amino)quinoxaline-6-carboxylate] | 29.9 ± 6.8 | 19.5 ± 1.1 | 32.1 ± 2.7 | 8 ± 0.1 | – | – | – | – | – | – | 49 ± 6.5 | 10.8 ± 0.9 | 13 ± 0.2 | 15.7 ± 5.9 | 0.1
8 | Cc1ccc(F)c(Nc2nc3ccccc3nc2Nc2cc(C)ccc2F)c1 [TD58, N^2,N^3-bis(2-fluoro-5-methylphenyl)quinoxaline-2,3-diamine] | 127 ± 2.9 | 98.9 ± 1.1 | 123 ± 3.6 | 74.9 ± 1.5 | 92.8 ± 2.03 | 83 ± 3.41 | 96.2 ± 1.22 | 95.6 ± 4.66 | 111 ± 1.54 | 91.8 ± 9.78 | – | – | – | – | –
9 | COc1ccc(Nc2nc3ccc([N+](=O)[O-])cc3nc2Nc2ccc(C(F)(F)F)cc2)cc1 [TD626, N^3-(4-(trifluoromethyl)phenyl)-N^2-(4-methoxyphenyl)-6-nitroquinoxaline-2,3-diamine] | 111 ± 1.3 | – | 39 ± 2.2 | – | – | – | – | – | – | – | 40.4 ± 0.8 | – | 24.3 ± 3.6 | – | –
10 | O=[N+]([O-])c1ccc2nc(Nc3ccc(Cl)c(F)c3)c(Nc3ccc(Cl)c(F)c3)nc2c1 [TD624, N^2,N^3-bis(4-chloro-3-fluorophenyl)-6-nitroquinoxaline-2,3-diamine] | 90.8 ± 4.8 | – | 15.7 ± 0.8 | – | – | – | – | – | – | – | 14.3 ± 3.6 | – | 11.9 ± 1 | – | –
11 | c1ccc(Oc2ccc(Nc3nc4ccccc4nc3Nc3ccc(Oc4ccccc4)cc3)cc2)cc1 [TD53, N^2,N^3-bis(4-phenoxyphenyl)quinoxaline-2,3-diamine] | 68.4 ± 1.4 | 46.7 ± 0.2 | 86.2 ± 5.7 | 56.8 ± 2.7 | 99.7 ± 6 | 59.2 ± 1.25 | 101.7 ± 0.34 | 10.6 ± 0.58 | 121 ± 9.01 | – | 99.4 ± 6.9 | 82.7 ± 99.9 | 120 ± 9.2 | 41.9 ± 3.9 | 7.4
12 | COc1ccc(Nc2nc3ccc([N+](=O)[O-])cc3nc2Nc2ccc(F)cc2)cc1 [TD631, N^3-(4-fluorophenyl)-N^2-(4-methoxyphenyl)-6-nitroquinoxaline-2,3-diamine] | 42.5 ± 2.8 | – | 35.8 ± 6.9 | – | – | – | – | – | – | – | 58.9 ± 3.1 | – | 40.4 ± 1.9 | – | –
13 | c1ccc(Nc2nc3ccccc3nc2Nc2ccccc2)cc1 [TD55, N^2,N^3-diphenylquinoxaline-2,3-diamine] | 64.2 ± 5.3 | 49.9 ± 4.8 | 106 ± 17.3 | 96.4 ± 7.4 | 102.7 ± 0.73 | 94.8 ± 6.05 | 89.9 ± 1.02 | 59.2 ± 15.8 | 100 ± 6.69 | 88.3 ± 1.29 | 100 ± 7.2 | 36.5 ± 5.9 | 110 ± 14.2 | 42.1 ± 0.6 | 8.3
14 | N#CCc1ccc(Nc2nc3ccccc3nc2Nc2ccc(CC#N)cc2)cc1 [TD62, 2,2′-((quinoxaline-2,3-diylbis(azanediyl))bis(4,1-phenylene))diacetonitrile] | 112 ± 3.6 | 65.2 ± 0.6 | 86 ± 2 | 90.1 ± 8.2 | 92.5 ± 1.41 | 85.3 ± 4.56 | 103 ± 1.7 | 100 ± 2.46 | 128 ± 1.8 | 128 ± 6.18 | 166 ± 23.1 | 120 ± 29 | 121 ± 2.2 | 97.4 ± 8.1 | –
15 | COc1ccc(Nc2nc3ccc([N+](=O)[O-])cc3nc2Nc2ccc(OC)cc2)cc1 [TD602, N^2,N^3-bis(4-methoxyphenyl)-6-nitroquinoxaline-2,3-diamine] | 42 ± 1.1 | 9.8 | 98.1 ± 5.9 | 8.1 ± 0.4 | 112 ± 3.97 | 7.14 ± 4.42 | 104 ± 2.31 | 0.89 ± 0.41 | 120 ± 5.8 | 2.05 ± 2.45 | 47.4 ± 2.4 | 10 ± 0.8 | 58.3 ± 9.2 | 12 ± 0.5 | –
16 | FC(F)(F)c1cc(Nc2nc3ccccc3nc2Cl)ccc1Cl [TD79, 3-chloro-N-(4-chloro-3-(trifluoromethyl)phenyl)quinoxalin-2-amine] | 123.7 ± 0.9 | 64.8 ± 4.5 | 131 ± 14.3 | 125 ± 10.5 | 98.5 ± 1.56 | 102 ± 5.66 | 96.6 ± 5.57 | 99 ± 6.01 | 98.9 ± 3.79 | 88.2 ± 19.9 | 96.5 ± 4.4 | 71.6 ± 10.1 | 114 ± 2.4 | 87.7 ± 1.8 | –
17 | NS(=O)(=O)c1ccc(Nc2nc3ccc([N+](=O)[O-])cc3nc2Nc2ccc(S(N)(=O)=O)cc2)cc1 [TD629, N^2,N^3-bis(4-phenylsulfonamide)-6-nitroquinoxaline-2,3-diamine] | 132.8 ± 1 | – | 140 ± 1.6 | – | – | – | – | – | – | – | 118 ± 1.2 | – | 113 ± 3.6 | – | –
18 | Clc1cccc(Nc2nc3ccccc3nc2Nc2cccc(Cl)c2)c1 [TD56, N^2,N^3-bis(3-chlorophenyl)quinoxaline-2,3-diamine] | 49.9 ± 4.7 | 28.8 ± 2.3 | 115.4 ± 0.8 | 19 ± 2 | 95 ± 0.91 | 32.5 ± 14.1 | 98.4 ± 6.37 | 4.76 ± 0.24 | 118 ± 5.41 | 1.46 ± 3.6 | – | – | – | – | –
19 | Cc1cc(Nc2nc3ccc([N+](=O)[O-])cc3nc2Nc2ccc(O)cc2)n[nH]1 [TD628, 4-(2-(5-methyl-1H-pyrazol-3-ylamino)-6-nitroquinoxalin-3-ylamino)phenol] | 147 ± 4.5 | – | 152 ± 1.7 | – | – | – | – | – | – | – | – | – | 140 ± 7.3 | – | –
